Data on six compounds can be found in patent US10683297B2 (Sunshine Lake Pharma Co., Ltd., priority 2017, dated 2020).

Data set [1] in a line: Compound stability in human liver microsomes. It is filed as in vitro ADME. As to conditions: for half-life at 5 μM: human liver microsomes 0.5 mg protein/mL, compound 5 μM, NADPH 1.0 mM, pH 7.4, 37° C., read-out: Human T1/2; for CLint scaled at 5 μM: liver microsomes, pH 7.4, in vivo CLint extrapolated from human liver microsome incubation. A digest of the protocol:
(§1)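 Compounds (5 μM) incubated at 37 °C with human or rat liver microsomes (0.5 mg protein/mL) and 1.0 mM NADPH in 100 mM phosphate buffer pH 7.4, 0.05% DMSO, in duplicate. Sampled 0–60 min, quantified by LC/MS/MS as % of time zero; CLint extrapolated.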

A short description of data set [2]: Compound stability in rat liver microsomes. It counts as in vitro ADME. As to conditions: for CLint scaled at 5 μM: liver microsomes, pH 7.4, in vivo CLint extrapolated from rat liver microsome incubation; for half-life at 5 μM: rat liver microsomes 0.5 mg protein/mL, compound 5 μM, NADPH 1.0 mM, pH 7.4, 37° C., read-out: Rat T1/2. A digest of the protocol: as §1

A short description of data set [3]: Pharmacokinetics after intravenous and oral administration in rats. It counts as in vivo. A digest of the protocol: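 Rats dosed i.v. (about 0.5, 0.6, 1 or 2 mg/kg) or p.o. (5 or 10 mg/kg) as solution, suspension or capsule. Plasma sampled over 24 h and quantified by LC/MS/MS in MRM mode with ESI.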
Data set [4] concerns PMA-induced increase in mouse ear thickness and weight. As to the kind of experiment: Topical PMA-induced acute atopic dermatitis in ICR mice. As to conditions: ICR female mice, 0.3 mg/ear/bid topical; for thickness (right ear) / Weight (right ear): 30 minutes before and 15 minutes after PMA, Mean±Sem; for thickness (right ear) / thickness Inhibition ratio: 6 hours after PMA. It counts as in vivo. On the procedure: ICR female mice (20-30 g), five mice or nine mice/group, were used in this study. Five micrograms of PMA (phorbol 12-myristate 13-acetate) in 20 μL of ethanol was applied topically to the anterior and posterior surface of the right ear of each mouse. Twenty microliters of vehicle (ethanol/acetone ([…])=1/1); 0.3 mg of EX. 68 ([…]); EX. 76, EX. 50, EX. 92 or EX. 65 (0.3 mg […]) were administrated to the same areas 30 minutes before and 15 minutes after PMA application. The thickness of right ears of each mouse was measured 6 hours after PMA stimulation. Ear weight of right ears of each mouse was weighed with analytical balance Each value represents the Mean±Sem. Statistical significance compared with model groups (*P<0.05; **P<0.01). Tables 5-1, 5-2 and 5-3 listed the inhibitory effect on PMA-induced increase in mouse ear thickness and weight. The compounds of the present invention have a good inhibitory effect on PMA-induced increase in mouse ear thickness and weight.

Data set [5] has as its target T1, JAK1 (h) (Homo sapiens, UniProt P23458).
T1 construct: purchased Millipore UK Ltd (assays performed there as a service)
As to the kind of experiment: JAK1 (h) kinase assay. As to conditions: [γ-33P-ATP] 10 μM or KM values; 40 minutes at room temperature. It counts as biochemical. The protocol: (§2) The above assay procedure can be used to determine the IC50 for inhibition and/or the inhibition constant, Ki. […] The IC50 value is estimated by preparing a 10 point curve using a ½ log dilution series (for example, a typical curve may be prepared using the following compound concentrations: 3 μM, 1 μM, 0.3 μM, 0.1 μM, 0.03 μM, 0.01 μM, 0.003 μM, 0.001 μM, 0.0003 μM and 0 μM).
JAK1 (h) is incubated with 20 mM Tris/HCl pH 7.5, 0.2 mM EDTA, 500 μM […], 10 mM MgAcetate and [γ-^33P-ATP] […] The reaction is initiated by the addition of the MgATP mix. After incubation for 40 minutes at room temperature, the reaction is stopped by the addition of 3% phosphoric acid solution. 10 μL of the reaction is then spotted onto a P30 filtermat and washed three times for 5 minutes in 75 mM phosphoric acid and once in methanol prior to drying and scintillation counting.
(§3) The kinase assays described herein were performed at Millipore UK Ltd, Dundee Technology Park, Dundee DD2 1SW, UK.

Data set [6] concerns the target T2, JAK2 (h) (Homo sapiens, UniProt O60674).
T2 construct: purchased Millipore UK Ltd (assays performed there as a service)
As to the kind of experiment: JAK2 (h) kinase assay. It counts as biochemical. As to conditions: [γ-33P-ATP] 10 μM or KM values; 40 minutes at room temperature. The protocol: Kinase assays can be performed by measurement of incorporation of γ-^33P ATP into immobilized myelin basic protein (MBP). High binding white 384 well plates (Greiner) are coated with MBP (Sigma # M-1891) by incubation of 60 μL well of 20 μg/mL MBP in Tris-buffered saline (TBS; 50 mM Tris pH 8.0, 138 mM NaCl, 2.7 mM KCl) for 24 h at 4° C. Plates are washed 3× with 100 μL TBS. Kinase reactions are carried out in a total volume of 34 μL in kinase buffer (according to the need to make, for example, 5 mM Hepes pH 7.6, 15 mM NaCl, 0.01% bovine gamma globulin (Sigma #1-5506), 10 mM MgCl2, 1 mM DTT, 0.02% TritonX-100). Compound dilutions are performed in DMSO and added to assay wells to a final DMSO concentration of 1%. Each data point is measured in duplicate, and at least two duplicate assays are performed for each individual compound determination. Enzyme is added to final concentrations of 10 nM or 20 nM, for example. A mixture of unlabeled ATP and γ-^33P ATP is added to start the reaction (2×10^6 cpm of γ-^33P ATP per well (3000 Ci/mmole) and 10 μM unlabeled ATP, typically. The reactions are carried out for 1 hour at room temperature with shaking. Plates are washed 7× with TBS, followed by the addition of 50 μL well scintillation fluid (Wallac). Plates are read using a Wallac Trilux counter. This is only one format of such assays; various other formats are possible, as known to one skilled in the art.
as §2
JAK2 (h) is incubated with 8 mM MOPS pH 7.0, 0.2 mM EDTA, 100 μM […], 10 mM MgAcetate and [γ-^33P-ATP] […] The reaction is initiated by the addition of the MgATP mix. After incubation for 40 minutes at room temperature, the reaction is stopped by the addition of 3% phosphoric acid solution. 10 μL of the reaction is then spotted onto a P30 filtermat and washed three times for 5 minutes in 75 mM phosphoric acid and once in methanol prior to drying and scintillation counting.
as §3

For data set [7], the target named is T3, Aurora-B (h) (Homo sapiens, UniProt Q96GD4).
T3 construct: purchased Millipore UK Ltd (assays performed there as a service)
As to the kind of experiment: Aurora-B (h) kinase assay. As to conditions: [γ-33P-ATP] 10 μM or KM values; 40 minutes at room temperature. It counts as biochemical. On the procedure:
as §2
Aurora-B (h) is incubated with 8 mM MOPS pH 7.0, 0.2 mM EDTA, 30 μM […], 10 mM MgAcetate and [γ-^33PATP] […] The reaction is initiated by the addition of the MgATP mix. After incubation for 40 minutes at room temperature, the reaction is stopped by the addition of a 3% phosphoric acid solution. 10 μL of the reaction is then spotted onto a P30 filtermat and washed three times for 5 minutes in 75 mM phosphoric acid and once in methanol prior to drying and scintillation counting.
as §3

The mark [8] stands for this setting: rat, plasma, iv dosing, dose 1 mg/kg (Ex. 9: 0.6, Ex. 18: 0.5, Ex. 50: 0.96 mg/kg).

Marks after values point to notes of the source that are not given here.

T1 sequence (P23458 whole entry): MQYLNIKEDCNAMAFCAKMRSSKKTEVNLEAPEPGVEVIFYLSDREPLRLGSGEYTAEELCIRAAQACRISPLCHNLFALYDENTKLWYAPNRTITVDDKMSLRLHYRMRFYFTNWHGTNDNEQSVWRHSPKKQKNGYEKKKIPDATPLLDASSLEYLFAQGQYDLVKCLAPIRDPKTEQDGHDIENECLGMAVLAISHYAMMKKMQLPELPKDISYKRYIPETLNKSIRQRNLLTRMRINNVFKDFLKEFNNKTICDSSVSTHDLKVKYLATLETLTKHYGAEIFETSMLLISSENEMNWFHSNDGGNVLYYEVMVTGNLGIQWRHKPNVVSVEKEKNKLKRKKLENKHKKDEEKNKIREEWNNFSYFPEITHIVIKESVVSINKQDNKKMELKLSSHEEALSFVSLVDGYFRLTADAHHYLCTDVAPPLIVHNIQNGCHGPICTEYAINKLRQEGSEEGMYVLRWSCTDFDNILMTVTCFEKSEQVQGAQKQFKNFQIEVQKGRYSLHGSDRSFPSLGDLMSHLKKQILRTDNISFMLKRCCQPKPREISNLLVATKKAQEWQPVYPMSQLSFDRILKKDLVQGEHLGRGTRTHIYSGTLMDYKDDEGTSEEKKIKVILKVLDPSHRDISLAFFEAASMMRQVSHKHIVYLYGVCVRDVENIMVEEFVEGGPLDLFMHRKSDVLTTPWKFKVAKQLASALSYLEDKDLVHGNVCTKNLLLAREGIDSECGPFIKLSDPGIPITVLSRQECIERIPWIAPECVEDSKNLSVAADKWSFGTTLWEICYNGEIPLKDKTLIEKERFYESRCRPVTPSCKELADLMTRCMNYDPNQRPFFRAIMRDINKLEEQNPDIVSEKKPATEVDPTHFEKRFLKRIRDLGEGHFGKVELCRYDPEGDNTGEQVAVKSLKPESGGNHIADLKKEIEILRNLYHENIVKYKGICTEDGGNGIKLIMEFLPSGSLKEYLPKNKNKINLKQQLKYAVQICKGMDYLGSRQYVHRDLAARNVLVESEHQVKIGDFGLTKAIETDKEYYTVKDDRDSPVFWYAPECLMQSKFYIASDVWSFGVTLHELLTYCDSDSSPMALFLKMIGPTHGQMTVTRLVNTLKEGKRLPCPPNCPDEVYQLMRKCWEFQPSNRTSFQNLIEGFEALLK
T2 sequence (O60674 whole entry): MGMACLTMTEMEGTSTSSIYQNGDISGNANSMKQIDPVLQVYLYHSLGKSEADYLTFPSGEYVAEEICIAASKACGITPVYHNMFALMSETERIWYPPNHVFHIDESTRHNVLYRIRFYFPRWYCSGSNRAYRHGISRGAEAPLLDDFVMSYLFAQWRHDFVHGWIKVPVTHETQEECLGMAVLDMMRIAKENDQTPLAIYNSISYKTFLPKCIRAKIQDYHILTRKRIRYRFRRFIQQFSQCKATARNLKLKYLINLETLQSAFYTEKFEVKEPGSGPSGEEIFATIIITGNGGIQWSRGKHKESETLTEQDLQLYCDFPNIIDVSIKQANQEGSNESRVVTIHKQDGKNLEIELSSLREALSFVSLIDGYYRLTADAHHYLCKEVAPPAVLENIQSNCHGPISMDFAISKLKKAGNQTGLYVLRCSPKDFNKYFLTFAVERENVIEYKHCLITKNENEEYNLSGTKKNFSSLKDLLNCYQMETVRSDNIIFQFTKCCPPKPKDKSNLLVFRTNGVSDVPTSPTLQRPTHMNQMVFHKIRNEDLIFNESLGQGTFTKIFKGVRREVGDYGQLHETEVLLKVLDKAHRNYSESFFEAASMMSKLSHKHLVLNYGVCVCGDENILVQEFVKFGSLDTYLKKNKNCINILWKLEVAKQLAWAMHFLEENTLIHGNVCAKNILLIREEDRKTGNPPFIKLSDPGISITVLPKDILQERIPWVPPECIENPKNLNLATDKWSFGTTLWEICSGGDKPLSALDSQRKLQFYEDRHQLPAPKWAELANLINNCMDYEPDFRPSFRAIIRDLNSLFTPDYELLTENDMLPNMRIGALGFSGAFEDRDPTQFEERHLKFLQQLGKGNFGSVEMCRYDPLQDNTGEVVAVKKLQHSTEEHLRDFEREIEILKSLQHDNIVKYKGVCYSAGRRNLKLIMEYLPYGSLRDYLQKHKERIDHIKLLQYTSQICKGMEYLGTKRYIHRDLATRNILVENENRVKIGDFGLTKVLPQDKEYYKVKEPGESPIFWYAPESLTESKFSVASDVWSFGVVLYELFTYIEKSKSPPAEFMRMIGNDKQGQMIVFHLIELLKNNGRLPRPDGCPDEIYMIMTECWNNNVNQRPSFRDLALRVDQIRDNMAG
T3 sequence (Q96GD4 whole entry): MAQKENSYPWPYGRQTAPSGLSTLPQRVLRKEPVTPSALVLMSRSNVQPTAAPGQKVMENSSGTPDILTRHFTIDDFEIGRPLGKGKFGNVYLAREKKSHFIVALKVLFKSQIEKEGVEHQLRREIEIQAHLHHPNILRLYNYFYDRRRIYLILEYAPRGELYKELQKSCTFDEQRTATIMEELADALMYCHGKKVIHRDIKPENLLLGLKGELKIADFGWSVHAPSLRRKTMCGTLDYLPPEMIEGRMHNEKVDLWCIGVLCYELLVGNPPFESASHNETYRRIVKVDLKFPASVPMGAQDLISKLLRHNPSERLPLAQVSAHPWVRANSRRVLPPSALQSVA

As to `Cn1cnc2cc(Nc3ncc(Cl)c(NC4CCN(c5ccc(C#N)nn5)CC4)n3)ccc21` [Example 50, 6-(4-((5-chloro-2-((1-methyl-1H-benzo[d]imidazol-5-yl)amino)pyrimidin-4-yl)amino)piperidin-1-yl)pyridazine-3-carbonitrile], in data set [1], the half-life at 5 μM is 55.6 min and the CLint scaled (in general, the rate of metabolic loss divided by the concentration) at 5 μM was 31.3 mL/min/kg. In data set [2], the CLint scaled at 5 μM is 58.2 mL/min/kg and the half-life at 5 μM was 29.9 min. For the same compound, in data set [3] (iv dosing, dose 1 mg/kg (Ex. 9: 0.6, Ex. 18: 0.5, Ex. 50: 0.96 mg/kg)), the “Clearance (CL) after iv dosing” value was determined as 14.2 mL/min/kg. Moreover, in data set [3] (setting [8]), the exposure AUC(0-t) – broadly, the area under the concentration-time curve up to a stated or last time point – was 1210 ng·h/mL and the half-life is 63 min. Moreover, in data set [3] (rat, plasma, iv dosing, dose 1 mg/kg (Ex. 9: 0.6, Ex. 18: 0.5, Ex. 50: 0.96 mg/kg), read-out: Vss), the Vd worked out at 1.17 L/kg. In addition, in data set [3] (rat, plasma, oral (generally 5 or 10 mg/kg) versus iv dosing, read-out: F (oral bioavailability)), the bioavailability (commonly the share of a dose that reaches the circulation, judged against a reference dose that is usually intravenous) was 51.8%. Further, in data set [4], the “Weight Inhibition ratio” value stood at 39.95%, the “thickness (right ear)” value was 0.321 ± 0.022** mm, the “Weight (right ear)” value was 25.222 ± 1.998** mg and the “thickness Inhibition ratio” value is recorded as 46.89%.

As for `CC(C)(O)Cn1nnc2cc(Nc3ncc(Cl)c(NC4CCN(c5ccc(C#N)nn5)CC4)n3)ccc21` [Example 62, 6-(4-((5-chloro-2-((1-(2-hydroxy-2-methylpropyl)-1H-benzo[d][1,2,3]triazol-5-yl)amino)pyrimidin-4-yl)amino)piperidin-1-yl)pyridazine-3-carbonitrile], the half-life at 5 μM in data set [1] worked out at 192 min; in data set [2], 33 min. Also, the values for the CLint scaled at 5 μM in data set [1] and in data set [2] were 9.1 mL/min/kg and 75.3 mL/min/kg, respectively. Besides, the IC50 (as a rule, the point on the concentration scale where inhibition reaches its midpoint) stood at 0.4 nM in data set [5], 2 nM in data set [6] and 48 nM in data set [7].

Consider `CCCn1nnc2cc(Nc3ncc(Cl)c(NC4CCN(c5ccc(C#N)nn5)CC4)n3)ccc21` [Example 65, 6-(4-((5-chloro-2-((1-propyl-1H-benzo[d][1,2,3]triazol-5-yl)amino)pyrimidin-4-yl)amino)piperidin-1-yl)pyridazine-3-carbonitrile], for which, in data set [1], the half-life at 5 μM was found to be 8 min and the CLint scaled at 5 μM is 218 mL/min/kg. In data set [2], the CLint scaled at 5 μM is 473 mL/min/kg and the half-life at 5 μM amounted to 5.3 min. The compound further yielded an IC50 in data set [5] of 0.9 nM. In data set [4], the “Weight Inhibition ratio” value worked out at 46.22%, the “thickness (right ear)” value is recorded as 0.374 ± 0.022** mm, the “Weight (right ear)” value is given as 26.333 ± 1.958* mg and the “thickness Inhibition ratio” value stood at 38.95%.

With `CC(C)(O)Cc1cn2ccc(Nc3ncc(Cl)c(NC4CCN(c5ccc(C#N)cn5)CC4)n3)cc2n1` [Example 76, 6-(4-((5-chloro-2-((2-(2-hydroxy-2-methylpropyl)imidazo[1,2-a]pyridin-7-yl)amino)pyrimidin-4-yl)amino)piperidin-1-yl)nicotinonitrile], in data set [1], the half-life at 5 μM came out at 15.1 min and the intrinsic metabolic clearance (CLint scaled) at 5 μM is 115 mL/min/kg. Also, in data set [2], the intrinsic metabolic clearance (CLint scaled) at 5 μM was 1440 mL/min/kg and the half-life at 5 μM is 1.7 min. In data set [5], this compound gave an IC50 of 0.5 nM. In data set [4], the “Weight Inhibition ratio” value amounted to 68.40%, the “thickness (right ear)” value is given as 0.252 ± 0.018** mm, the “Weight (right ear)” value is reported as 20.000 ± 1.323** mg and the “thickness Inhibition ratio” value was 77.86%.

For the compound `CN(C)C(=O)c1nc2cc(Nc3ncc(Cl)c(NC4CCN(c5ccc(C#N)nn5)CC4)n3)ccn2n1` [Example 85, 7-((5-chloro-4-((1-(6-cyanopyridazin-3-yl)piperidin-4-yl)amino)pyrimidin-2-yl)amino)-N,N-dimethyl-[1,2,4]triazolo[1,5-a]pyridine-2-carboxamide], the half-life at 5 μM in data set [1] turned out to be 32.5 min; in data set [2] it was 23.5 min. The CLint scaled at 5 μM is 53.5 mL/min/kg in data set [1] and 106 mL/min/kg in data set [2]. For the same compound, the IC50 in data set [5] stood at 0.3 nM; in data set [6], 17 nM; in data set [7], 163 nM.

In the case of `N#Cc1ccc(N2CCC(Nc3nc(Nc4cnc5c(c4)ncn5CCO)ncc3Cl)CC2)nc1` [Example 92, 6-(4-((5-chloro-2-((3-(2-hydroxyethyl)-3H-imidazo[4,5-b]pyridin-6-yl)amino)pyrimidin-4-yl)amino)piperidin-1-yl)nicotinonitrile], in data set [4], the “Weight Inhibition ratio” value is listed as 72.30%, the “thickness (right ear)” value is given as 0.319 ± 0.027** mm, the “Weight (right ear)” value is 21.444 ± 1.952** mg and the “thickness Inhibition ratio” value is 60.03%.
